From article PMC11456916, “A screen for cell envelope stress uncovers an inhibitor of prolipoprotein diacylglyceryl transferase, Lgt, in Escherichiacoli” (iScience, 2024)

System: 356 CRISPRi constructs in E. coli ΔtolC-pore
Test: CRISPRi collection fitness screen with sub-inhibitory compound
Format: cell-based
Details: for Growth represented as mean colony biomass: 1μg/ml MAC0452936, 6ng/ml LolCDE-in-1, 250 ng/ml Vancomycin, 7 ng/ml CHIR090, n=4; for Growth, mean colony biomass (n=4): + 7 ng/ml CHIR090
Text: To that end, we screened the E. coli CRISPRi collection in the ΔtolC-pore genetic background with a sub-inhibitory concentration of MAC-0452936 and measured the fitness of all 356 CRISPRi mutants (Figure 4C and Data S4). […] To that end, we introduced either an arabinose inducible copy of lgt supplied on the pCHAP9231 plasmid[48] or the pBAD19s plasmid as a control into E. coli ΔtolC-pore and tested the potency of MAC-0452936 (Figure 4E). […] To test this hypothesis, we constructed E. coli ΔlgtΔtolC-pore with pCHAP9231[48] so that lgt expression was driven solely by arabinose from the plasmid.
For screens of the CRISPRi collection with MAC-0452936, the mobile CRISPRi collection was first conjugated into E. coli ΔtolC-pore as previously described.[30] The CRISPRi collection was then arrayed on solid agar at 1536 density using the Singer-ROTOR, such that each CRISPRi strain is arrayed in technical quadruplicate. […] The screens were conducted without CRISPRi induction, using just the 5–10% basal knockdown from the pFD152 CRISPRi plasmid. Following overnight growth, plates were imaged using high-resolution scanners (Epson Perfection v750), and colony biomass for each mutant was determined.

[1] = sub-inhibitory (¼ MIC) concentration, LB agar, basal knockdown

C[C@@H](O)[C@H](NC(=O)c1ccc(C#Cc2ccc(CN3CCOCC3)cc2)cc1)C(=O)NO [CHIR090]
Growth represented as mean colony biomass (gRNA accA): 0.9728 | Growth, mean colony biomass (n=4) (gRNA aceF): 1.1 | Growth, mean colony biomass (n=4) (gRNA alaS): 1.087 | Growth, mean colony biomass (n=4) (gRNA argS): 1.119 | Growth, mean colony biomass (n=4) (gRNA asnS): 1.015 | Growth, mean colony biomass (n=4) (gRNA bamA): 1.043 | Growth, mean colony biomass (n=4) (gRNA bamD): 1.088 | Growth, mean colony biomass (n=4) (gRNA bioA): 1.01 | Growth, mean colony biomass (n=4) (gRNA can): 1.059 | Growth represented as mean colony biomass (gRNA cca): 0.9249 | Growth represented as mean colony biomass (gRNA coaA): 0.8479 | Growth, mean colony biomass (n=4) (gRNA csrA): 1.056 | Growth represented as mean colony biomass (gRNA cydA): 1.062 | Growth represented as mean colony biomass (gRNA cydX): 1.061 | Growth represented as mean colony biomass (gRNA dapD): 0.9522 | Growth represented as mean colony biomass (gRNA dapE): 1.007 | Growth represented as mean colony biomass (gRNA der): 0.9768 | Growth represented as mean colony biomass (gRNA dfp): 0.8989 | Growth, mean colony biomass (n=4) (gRNA dnaC): 1.065 | Growth represented as mean colony biomass (gRNA dnaE): 1.058 | Growth represented as mean colony biomass (gRNA dnaN): 1.037 | Growth represented as mean colony biomass (gRNA dnaX): 0.9219 | Growth, mean colony biomass (n=4) (gRNA dut): 0.9955 | Growth represented as mean colony biomass (gRNA eno): 0.9728 | Growth represented as mean colony biomass (gRNA era): 1.02 | Growth represented as mean colony biomass (gRNA fabA): 0.9775 | Growth represented as mean colony biomass (gRNA fabG): 1.01 | Growth represented as mean colony biomass (gRNA fabI): 0.9675 | Growth represented as mean colony biomass (gRNA fdx): 0.979 | Growth represented as mean colony biomass (gRNA fldA): 1.057 | Growth, mean colony biomass (n=4) (gRNA folA): 0.9636 | Growth represented as mean colony biomass (gRNA folB): 1.017 | Growth, mean colony biomass (n=4) (gRNA folC): 1.012 | Growth represented as mean colony biomass (gRNA folE): 0.9169 | Growth represented as mean colony biomass (gRNA folP): 0.9924 | Growth represented as mean colony biomass (gRNA frr): 0.9411 | Growth, mean colony biomass (n=4) (gRNA ftsA): 0.9154 | Growth represented as mean colony biomass (gRNA gapA): 0.9821 | Growth, mean colony biomass (n=4) (gRNA glmS): 1.055 | Growth represented as mean colony biomass (gRNA glmU): 1.014 | Growth represented as mean colony biomass (gRNA gltX): 0.9512 | Growth, mean colony biomass (n=4) (gRNA glyA): 1.052 | Growth represented as mean colony biomass (gRNA groS): 0.9583 | Growth represented as mean colony biomass (gRNA grpE): 1.032 | Growth represented as mean colony biomass (gRNA guaA): 0.9865 | Growth, mean colony biomass (n=4) (gRNA hemD): 1.036 | Growth represented as mean colony biomass (gRNA hemG): 0.9689 | Growth represented as mean colony biomass (gRNA hemH): 0.992 | Growth represented as mean colony biomass (gRNA hemL): 0.9608 | Growth represented as mean colony biomass (gRNA higA): 1.023 | Growth represented as mean colony biomass (gRNA hisS): 0.9896 | Growth represented as mean colony biomass (gRNA holD): 0.9599 | Growth represented as mean colony biomass (gRNA hscA): 0.9776 | Growth, mean colony biomass (n=4) (gRNA infA): 1.073 | Growth represented as mean colony biomass (gRNA infC): 1.06 | Growth represented as mean colony biomass (gRNA iscU): 0.9911 | Growth represented as mean colony biomass (gRNA ispB): 0.9696 | Growth represented as mean colony biomass (gRNA ispF): 0.9551 | Growth, mean colony biomass (n=4) (gRNA leuS): 1.366 | Growth, mean colony biomass (n=4) (gRNA lexA): 1.376 | Growth represented as mean colony biomass (gRNA lolC): 0.8957 | Growth, mean colony biomass (n=4) (gRNA lptA): 1.212 | Growth, mean colony biomass (n=4) (gRNA lptB): 1.0261 | Growth represented as mean colony biomass (gRNA lptC): 1.089 | Growth represented as mean colony biomass (gRNA lptE): 1.06 | Growth represented as mean colony biomass (gRNA lptF): 1.019 | Growth represented as mean colony biomass (gRNA lptG): 1.007 | Growth represented as mean colony biomass (gRNA lpxC): 0.3105 | Growth represented as mean colony biomass (gRNA lpxD): 1.005 | Growth, mean colony biomass (n=4) (gRNA mnmA): 1.028 | Growth, mean colony biomass (n=4) (gRNA mrdB): 0.9292 | Growth represented as mean colony biomass (gRNA mreB): 0.9175 | Growth represented as mean colony biomass (gRNA mreC): 0.8842 | Growth, mean colony biomass (n=4) (gRNA msbA): 1.129 | Growth, mean colony biomass (n=4) (gRNA mukF): 0.98 | Growth represented as mean colony biomass (gRNA murB): 1.054 | Growth represented as mean colony biomass (gRNA murC): 0.9542 | Growth, mean colony biomass (n=4) (gRNA murI): 1.202 | Growth, mean colony biomass (n=4) (gRNA nadK): 1.005 | Growth represented as mean colony biomass (gRNA nusB): 1.054 | Growth represented as mean colony biomass (gRNA plsB): 0.9093 | Growth, mean colony biomass (n=4) (gRNA prmC): 0.9966 | Growth represented as mean colony biomass (gRNA proS): 0.9867 | Growth, mean colony biomass (n=4) (gRNA psd): 1.319 | Growth, mean colony biomass (n=4) (gRNA pssA): 0.939 | Growth, mean colony biomass (n=4) (gRNA ptsI): 1.093 | Growth represented as mean colony biomass (gRNA racR): 0.9688 | Growth, mean colony biomass (n=4) (gRNA rho): 0.9866 | Growth represented as mean colony biomass (gRNA ribA): 0.9235 | Growth represented as mean colony biomass (gRNA ribC): 0.9738 | Growth, mean colony biomass (n=4) (gRNA ribD): 1.097 | Growth represented as mean colony biomass (gRNA ribF): 0.9595 | Growth represented as mean colony biomass (gRNA rimM): 0.9147 | Growth represented as mean colony biomass (gRNA rluD): 1.0007 | Growth, mean colony biomass (n=4) (gRNA rne): 1.043 | Growth represented as mean colony biomass (gRNA rpe): 1.042 | Growth, mean colony biomass (n=4) (gRNA rplA): 0.9782 | Growth represented as mean colony biomass (gRNA rplD): 0.927 | Growth represented as mean colony biomass (gRNA rplE): 1.02 | Growth represented as mean colony biomass (gRNA rplJ): 0.8734 | Growth represented as mean colony biomass (gRNA rplO): 0.8878 | Growth, mean colony biomass (n=4) (gRNA rplP): 1.09 | Growth represented as mean colony biomass (gRNA rplQ): 1.099 | Growth represented as mean colony biomass (gRNA rplS): 0.9537 | Growth, mean colony biomass (n=4) (gRNA rplV): 1.004 | Growth, mean colony biomass (n=4) (gRNA rplX): 1.052 | Growth represented as mean colony biomass (gRNA rplY): 1.0779 | Growth, mean colony biomass (n=4) (gRNA rpmC): 0.9906 | Growth represented as mean colony biomass (gRNA rpmH): 1.001 | Growth represented as mean colony biomass (gRNA rpmI): 0.9513 | Growth, mean colony biomass (n=4) (gRNA rpoC): 1.121 | Growth, mean colony biomass (n=4) (gRNA rpoE): 1.013 | Growth represented as mean colony biomass (gRNA rpoH): 1.038 | Growth, mean colony biomass (n=4) (gRNA rpsC): 1.084 | Growth, mean colony biomass (n=4) (gRNA rpsD): 1.134 | Growth represented as mean colony biomass (gRNA rpsE): 0.9264 | Growth represented as mean colony biomass (gRNA rpsF): 1.096 | Growth, mean colony biomass (n=4) (gRNA rpsG): 0.9816 | Growth represented as mean colony biomass (gRNA rpsH): 0.9044 | Growth, mean colony biomass (n=4) (gRNA rpsK): 1.022 | Growth, mean colony biomass (n=4) (gRNA rpsL): 1.049 | Growth, mean colony biomass (n=4) (gRNA rpsM): 0.9866 | Growth, mean colony biomass (n=4) (gRNA rpsR): 1.0423 | Growth, mean colony biomass (n=4) (gRNA rpsT): 0.8858 | Growth represented as mean colony biomass (gRNA rsgA): 0.9517 | Growth represented as mean colony biomass (gRNA safA): 1.0001 | Growth, mean colony biomass (n=4) (gRNA secA): 1.136 | Growth represented as mean colony biomass (gRNA secY): 1.007 | Growth represented as mean colony biomass (gRNA serS): 1.071 | Growth represented as mean colony biomass (gRNA ssb): 1.053 | Growth represented as mean colony biomass (gRNA sucA): 0.9406 | Growth, mean colony biomass (n=4) (gRNA suhB): 1.008 | Growth represented as mean colony biomass (gRNA tilS): 1.04 | Growth represented as mean colony biomass (gRNA tonB): 0.9801 | Growth represented as mean colony biomass (gRNA trmD): 0.9934 | Growth represented as mean colony biomass (gRNA tsaB): 1.008 | Growth represented as mean colony biomass (gRNA tsaD): 0.9494 | Growth, mean colony biomass (n=4) (gRNA tsaE): 1.05 | Growth represented as mean colony biomass (gRNA tsf): 1.069 | Growth represented as mean colony biomass (gRNA tusE): 1.0146 | Growth represented as mean colony biomass (gRNA tyrS): 0.993 | Growth represented as mean colony biomass (gRNA ubiB): 0.9982 | Growth represented as mean colony biomass (gRNA ubiD): 0.963 | Growth, mean colony biomass (n=4) (gRNA waaA): 1.006 | Growth represented as mean colony biomass (gRNA ydaS): 0.976 | Growth represented as mean colony biomass (gRNA ydcD): 0.9913 | Growth represented as mean colony biomass (gRNA ydhL): 0.9285 | Growth, mean colony biomass (n=4) (gRNA yedN): 0.9909 | Growth represented as mean colony biomass (gRNA yejM): 0.9171 | Growth represented as mean colony biomass (gRNA yffS): 1.036 | Growth represented as mean colony biomass (gRNA ygeF): 1.069 | Growth, mean colony biomass (n=4) (gRNA ygeN): 0.9546 | Growth represented as mean colony biomass (gRNA yidC): 0.9824 | Growth represented as mean colony biomass (gRNA ymfE): 0.9789 | Growth represented as mean colony biomass (gRNA ymiB): 1.048 | Growth, mean colony biomass (n=4) (gRNA yqeL): 1.42 | Growth represented as mean colony biomass (gRNA yqgF): 1.058 | Growth, mean colony biomass (n=4) (gRNA zipA): 1.877 | growth defect of CRISPRi strains for the compound's molecular target (LolCDE complex and LpxC, respectively) [1]: strongest growth defect | growth defect of the lgt CRISPRi mutant in the presence of compound [1]: did not demonstrate a growth defect
